This note sets out measurements from US4647586A, “Pharmaceutical oil-in-water type micro-emulsion” (priority 1984, dated 1987).

Assay [1] concerns brewer's yeast-induced fever. The experiment in a line: Effects on body temperature in pyretic rats (antipyretic activity). The assay is classed as in vivo, SD-strain male rats. Conditions: iv, 17 h, read-out: ED50 (dose reducing body temperature by at least 1.5° C. in 50% of the rats). As for the experimental part: (a) Experimental animals SD-strain male rats (120-185 g).
(§1) (b) Test drugs: The same as in A-1 [Test 2].
Male Sprague-Dawley rats, weighing 120-185 g, were injected subcutaneously in the nape of the neck with 2 ml of a 20% suspension of dried brewers yeast in physiological saline. Drugs and vehicles were administered intravenously 17 hours after treatment of yeast suspension. Rectal temperature was recorded with a thermistor type thermometer (Natsume Seisakusho, BMA-77 Type) just prior to drug administration and at 1/2, 1, 2 and 4 hours after drug administration.

For assay [2], the system named is abnormal 3-legged gait (brewers yeast-inflamed paw). The assay can be described thus: Reversal of abnormal 3-legged gait in rats (analgesic activity). It counts as in vivo, SD-strain male rats. The note with it: Rattus norvegicus, iv, read-out: ED50 (dose causing at least 50% reversal of gait score in 50% of the rats). As for the experimental part:
(a) Experimental animals: SD-strain male rats (120-165 g).
as §1
A 40% suspension of dried brewers yeast in physiological saline was injected (0.25 ml/rat) subcutaneously into the planter surface of the left hind paw of each rat. Three hours later, the walking gait on a wire mesh platform was assessed for each rat.
0 = Normal gait in the presence of a severely
0.5 = As above, with intermittent mild limping.
1.0 = Constant limping, but continuous use of
1.5 = Limping with occasional 3-legged gait
2.0 = Continous 3-Legged gait and/or only the
Any rat not showing a gait score of 2 was eliminated from this test. Drugs and vehicles were then administered intravenously. Measurements of the gait were made at 1, 2, 3 and 4 hours after drug administration.

As usually defined, the ED50 is the dose that gives a 50% effect, or the effect in half of the subjects. Turning to `O=C([O-])Cc1ccc(-c2ccccc2)cc1.[Na+]`, the figures for the 50% effective dose (ED50) in assay [1] and in assay [2] were 2.6 mg/kg and 7.1 mg/kg, respectively.
